Data on ten substances can be found in article PMC10208956, “Microbial peptides activate tumour-infiltrating lymphocytes in glioblastoma” (Nature, 2023).

One test concerns TCC2D3. The following applies: 3 h.
The next test has as its system TCC75. Description: Cytokine/chemokine secretion of TCC75. Format: cell-based, human. The following applies: 3 days; Extended Data Fig. 5e.
Test [1] has as its system sorted CD4+ PE and FITC TCRVβ+ TILs. Description: Proliferation of TCRBV-sorted CD4+ TILs (without TCRBV6.1 and TCRBV6.2). The class given is cell-based, human. The conditions noted are these: sheet 6b. An excerpt:
TILs expressing specific TCRBVs were isolated from bulk TILs using a panel of 22 fluorescently labelled TCRBV antibodies that detect 27 different TCRBVs. Twelve TCRBV antibodies were labelled with PE and 10 with FITC (Beckman Coulter). […] After another wash, cells were stained with CD4 (1:100) (APC anti-human CD4, eBioscience), CD8 (1:100) (Pacific blue anti-human CD8, BioLegend), TCRBV-PE (1:25) (Beckman Coulter) and TCRBV-FITC (1:25) (Beckman Coulter) antibodies (Supplementary Table 12) for 30 min. Finally, cells were sorted, seeded at 5 × 10^4 cells per well in T cell medium without h-IL-2 and rested for 1 day before stimulation with 2 × 10^5 cells per well of irradiated autologous PBMCs (45 Gy) and peptide (10 µM).
Two populations of CD4^+ PE-TCRVβ^+ and CD4^+ FITC-TCRVβ^+ were sorted and later mixed together. […] Specific amount of each cytokine/chemokine (pg/ml) was calculated by subtracting the cytokines in the negative control cultures (no peptide control). Source data

Another test relates to TCC88. The following applies: BLS-DRB3*02:02 as APCs; 3 days; SI ≥ 2 positive.
Test [2] concerns bacteria/microbiota-reactive CFSEdim CD4+ TILs. Description: Proliferation of expanded CFSEdim CD4+ TILs that responded to the bacteria/microbiota peptide pool. Format: cell-based, human. The conditions noted are these: 5 days; 4 replicate wells; Fig. 4d.

Regarding Ac-KEDMSVPLIKSIRK-NH2 [Pep-bac10], in the test with TCC2D3, the “SI: TCC2D3” value is on record as 2.2.
For the substance Ac-VWEFNHSLHP-NH2 [HGM27], the “cytokine and chemokine profile of TCC75 (in words)” value with TCC75 is on record as “secretes pro-inflammatory cytokines”. Besides, the results for the “Proliferation (SI) of sorted CD4+ TILs” value in test [1] (replicate 1), in test [1] (replicate 2) and in test [1] (replicate 3) were 2.099, 2.919 and 2.416, respectively.
In the case of LVDFFHSSAI [HGM32], the “recognition by TCC88, proliferation (in words)” value with TCC88 is reported as “stimulatory”.
Ac-AVVTQPDK-NH2 [Pep-bac9]: in the test on TCC2D3, the “SI: TCC2D3” value is reported as 2.5.
As to “REFTKATNVRLRF [LAMA5, vaccine pool peptide from laminin subunit α5]”, in test [2], the “recognition by CD4+ TILs pre-stimulated with the bacteria/microbiota peptide pool, by proliferation and/or GM-CSF secretion (in words)” value is listed as “recognized”.
For “LWEFNNVSLA [HB4, UniProt bacteria database peptide]”, the results for the “Proliferation (SI) of sorted CD4+ TILs” value in test [1] (replicate 1), in test [1] (replicate 2) and in test [1] (replicate 3) were 1.585, 1.003 and 1.832, respectively.
Take Ac-SNGDLDAIVVARAGLA-NH2 [Pep-bac16]: in the test on TCC2D3, the “SI: TCC2D3” value was determined as 2.2.
Ac-VFDFNHSAIK-NH2 [HGM62]: the results for the “Proliferation (SI) of sorted CD4+ TILs” value in test [1] (replicate 1), in test [1] (replicate 2) and in test [1] (replicate 3) were 1.423, 1.043 and 2.568, respectively.
As for “QLEFNHAIAS [HB2, UniProt bacteria database peptide]”, the results for the “Proliferation (SI) of sorted CD4+ TILs” value in test [1] (replicate 1), in test [1] (replicate 2) and in test [1] (replicate 3) were 1.556, 1.363 and 1.455, respectively.
For “LYEFNHSPGF [HGM7, human gut microbiota peptide]” the same measures were 2.804, 1.758 and 3.368.
